Measurements taken from patent publication US20060173079A1, “Compositions and methods for improving the condition of patients suffering from copd and other diseases” (priority 2003, published 2006).
“Also recorded” adds a separate entry of the source. One block for each compound: values may come before it.

Columns and labels:
[1] = cited from earlier work
[2] = Side effects / tolerance incl. Chinese restaurant syndrome (food tolerance questionnaire); assay type: in vivo, human; details: for side effects / adverse complaints (including Chinese Restaurant syndrome symptoms): COPD patients and healthy control subjects, 6-7 g/hour for 4-6 hours
Description: In all the pilot studies, the patients and the healthy control subjects in the age ranging from 20 to 80 years were run through a protocol to determine feasibility.
In the experiments the intake of glutamate is usually in the order of 6-7 g/hour for a period of 4-6 hours meaning a total intake of […].
Moreover, a placebo (glutamine) was used for comparison.

[3] = Plasma urea concentration after test drinks; assay type: in vivo, human; details: for plasma urea compared to baseline values: healthy control and COPD group, 30.0 mg GLU/kg or 29.8 mg glutamine/kg every 20 min for 4 hours
Description: The 3 test drinks were studied on different days and in a randomized order using a similar study protocol.

[4] = Plasma GLU concentration after continuous ingestion of a glutamate enriched drink; assay type: in vivo, human
Description: When using a continuous infusion protocol of stable isotopes, plasma glutamate concentrations have to be in steady state condition before metabolic data can be obtained.
Subsequently, we performed several pilot studies (summary see FIG. 1) in order to obtain the optimal dose of glutamate. Pilot studies included continuous ingestion of a glutamate enriched drink and evaluation of the concentration of glutamate and related amino acids in plasma.
In the 2nd pilot study, we decided to use the pure form of glutamate to avoid the large sodium content. […] Blood samples were taken to evaluate plasma glutamate level.
This protocol was used in further studies.

[5] = tested on: whole body leucine turnover; assay: Whole body leucine turnover (leucine tracer); assay type: in vivo, human
Description: FIG. 11: Whole body leucine rate of appearance gives a reflection of whole body leucine turnover and is the sum of leucine turnover coming from protein breakdown and from other (non-protein) sources.
(§1) The subjects were measured before and during a submaximal constant work rate cycle test of 20 minutes (at 50% of their maximal workload previously achieved during an incremental exercise test).

[6] = tested on: myofibrillar (muscle) protein breakdown; assay: Myofibrillar protein breakdown (3-methylhistidine turnover / rate of appearance); assay type: in vivo, human; details: for 3-methylhistidine rate of appearance in plasma during exercise: submaximal cycle exercise 20 min at 50% maximal workload, GLU versus water
[7] = GLU appearance in plasma and splanchnic GLU extraction (stable isotope methodology); assay type: in vivo, human; details: young subjects, after start of GLU ingestion
[8] = tested on: whole body protein breakdown; assay: Whole body protein breakdown (phenylalanine turnover, stable isotope methodology); assay type: in vivo, human; details: young healthy volunteers, during GLU supplementation
Description: In the young healthy volunteers, whole body protein and 3-methylhistidine turnover were measured during glutamate supplementation using stable isotope methodology. […] In order to elucidate the contribution of muscle to whole body protein metabolism, the rate of myofibrillar protein breakdown (3-methylhistidine turnover) was simultaneously measured.

[9] = Plasma lactate response to exercise; assay type: in vivo, human
Description: as §1

SMILES: N[C@@H](CCC(=O)O)C(=O)[O-].[Na+] [MSG, monosodium glutamate]
side effects after high (bolus) dose ([1]; Graham et al., healthy subjects, bolus MSG): transient headaches
plasma GLU concentration versus dose ([1]; Stegink et al. and Ghezzi et al., healthy volunteers, various concentrations of MSG): increased proportionally to the given dose
muscle GLU concentration ([1]; young healthy men, glutamate provided in excess as MSG): increase
tolerance of the drink ([2]; healthy volunteers, 3.6% MSG solution, 80.3 mg MSG/kg body weight every 30 minutes): well

SMILES: NC(=O)CC[C@H](N)C(=O)O [GLN, glutamine, reference compound]
plasma urea compared to baseline values [3]: increased

time to steady state in GLU concentration after start of ingestion ([4]; 4 subjects, 30 mg GLU/kg body weight every 20 min (FIG. 2)): ≤ 2 h
rise in plasma GLU concentration, COPD group versus control group ([4]; 8 COPD patients vs 8 healthy controls, 30 mg GLU/kg every 20 min): significantly lower
time to steady state of plasma glutamate concentration ([4]; healthy young volunteers, 30 mg GLU/kg body weight every 20 min): ≤ 120 min
increase in the plasma glutamate concentration ([4]; healthy young volunteers, 30 mg GLU/kg body weight every 20 min (2.4% solution), total 300 mg/kg): about 500%
time to steady state of whole body GLU plasma appearance [7]: ≤ 1.5 h
SMILES: N[C@@H](CCC(=O)O)C(=O)O [GLU, L-glutamic acid]
plasma GLU level compared to baseline ([4]; COPD patients and healthy age-matched control subjects (both groups), 30 mg GLU/kg every 20 min, 120 min after start): significantly increased; also recorded: significant increase
steady state in plasma glutamate level ([4]; healthy volunteers, 69.4 mg glutamate/kg body weight every 30 minutes (2.4% solution)): 30 min intervals were too long to reach a steady state
plasma GLU concentration ([4]; healthy young volunteers, GLU added to carbohydrate (maltodextrin) whey protein meal (carbohydrate:protein:glutamate=5:2:5)): significantly increased to steady state values
whole body leucine turnover not related to protein turnover ([5]; at rest, COPD and control subjects): reduction
increase in whole body leucine turnover during exercise ([5]; cycle exercise 20 min at 50% maximal workload, 30 mg GLU/kg every 20 min versus water, COPD (and control) group): diminished the increase
myofibrillar protein breakdown during the first 10 minutes of exercise ([6]; COPD group, cycle exercise, ingesting glutamate): reduction
3-methylhistidine rate of appearance in plasma during exercise ([6]; COPD group): abolished the increase
3-methylhistidine rate of appearance in plasma during exercise ([6]; COPD group, listed as glutamate): diminished
myofibrillar protein breakdown (3-methylhistidine turnover) ([6]; young healthy volunteers at rest, in less than one hour after GLU ingestion): reduction; also recorded: decreased
whole body protein breakdown rate (phenylalanine turnover) [8]: gradual decrease; also recorded: significantly decreased
plasma urea compared to baseline values [3]: decreased
plasma urea concentration after intake ([3]; healthy young volunteers, GLU with carbohydrate (maltodextrin) protein meal): decreased
increase in plasma lactate concentration during exercise versus water ([9]; COPD group (text to FIG. 13)): lower increase
increase in plasma lactate concentration during exercise versus water ([9]; healthy control group (FIG. 13 legend)): lower increase
CRS effects versus placebo (glutamine) ([2]; 26 healthy volunteers, 30 mg GLU/kg every 20 min): No significant differences
number and severity of complaints versus placebo (glutamine) ([2]; 26 healthy volunteers, 30 mg GLU/kg every 20 min, questionnaire until 2 hours after last ingestion): No differences
subjects having the symptoms known as Chinese restaurant syndrome ([2]; 26 healthy volunteers, 30 mg GLU/kg every 20 min, until 2 hours after ingestion): less than 5%
side effects / adverse complaints (including Chinese Restaurant syndrome symptoms) [2]: none
side effects / adverse complaints (including Chinese Restaurant syndrome symptoms) ([2]; listed as glutamate): do not occur
